Results as given in patent publication US12478616B2, “PI3K inhibitors and uses thereof” (Sloan-Kettering Institute for Cancer Research, priority 2018, dated 2025).
Where two headings read alike, the source gives them in different places. Marks after values point to notes of the source that are not given here.

How the values were obtained:
PI3Kα = PI3Kα (Homo sapiens (Human), UniProt P42336); assay: PI3Kα kinase (biochemical) assay
[1] = Mouse pharmacokinetics, cassette dosed free drug; format: in vivo; conditions: for MRTiv / BA / MRTpo / AUC / concentration at 5 min / clearance / Vd / Cmax / Tmax: cassette; for concentration at 5 min: read-out: C5min; for clearance: read-out: Cltotal (converted); for Vd: read-out: VDss
Excerpt: (§1) Mouse PK data for Compound (14) (cassette dosing) for free drug (i.e., not nanoformulated) is tabulated in Table 2 using amorphous material. […] The corresponding rat PK data is tabulated in Table 3, where the results are consistent with mouse PK data.

[2] = Fucoidan nanoparticle formulation, drug load and particle size; format: physicochemical; conditions: Table 1
Protocol: FIG. 13. Generation of Compound (14) Nanoparticles [Fi(Compound (14))]. An aliquot of 0.1 mL of Compound (14) dissolved in dimethyl sulfoxide (25 mg/mL) was added drop-wise ([…]) to a 0.6 mL aqueous polysaccharide solution (15 mg/mL) containing IR820 (2.5 mg/mL) and 0.05 mM sodium bicarbonate. An aliquot of 0.1 mL of 8-arm PEG-amine dissolved in water (Creative Peg Works, 20 kD, 5 mg/mL) was added drop-wise to the mixture followed by centrifugation (20,000 g, 30 min). The nanoparticle pellet was re-suspended in 1 mL of sterile PBS. The suspension was sonicated for 10 s with a probe tip ultrasonicator at 40% intensity (Sonics inc). The nanoparticles were lyophilized in a 5% saline/sucrose solution.
Nanoformulated Compound (14) [Fi(Compound (14))] was typically prepared as illustrated in FIG. 13 by adding a DMSO solution dropwise to an aqueous polysaccharide solution containing the near-IR dye IR820. This was followed by the addition of an aqueous solution containing 20 kD, 8-arm PEG-amine, centrifugation and ultra-sonication yielding nanoparticles (<200 nm) with good batch consistency (FIG. 14). […]
Importantly, each of these 3 new derivatives shown in Table 8 were successfully encapsulated in fucoidan polysaccharide nanoparticles. Following nanoformulation, the drug loading in the nanoparticle for each analog was determined.

[3] = Rat pharmacokinetics, cassette dosed free Compound (14); format: in vivo
Excerpt: as §1

PI3K = PI3K cellular assays; format: cell-based; design: key: Inactive (−); Low (+); Intermediate (++); High (+++); conditions: for PI3K cellular activity: Table 1
ERK phosphorylation = conditions: cited from earlier work
[4] = test system: B16F10 melanoma lung metastases; conditions: FiDOX 1, 5 and 30 mg/kg; free doxorubicin 6 mg/kg; cited from earlier work
[5] = cited from earlier work
[6] = healthy mice, single dose, BYL719 25 or 50 mg/kg, Fi(BYL719) 25 mg/kg, cited from earlier work
Cal-33 xenografts = conditions: Fi(BYL719) 25 mg/kg twice a week; free BYL719 7 mg/kg/day (50 mg/kg/week); cited from earlier work
[7] = rat, BYL719 dose 3.4 mg/kg IV, cited from earlier work
[8] = test system: S6 ribosomal protein (S6) phosphorylation; conditions: single administration; free BYL719 oral, Fi(BYL719) 25 mg/kg; up to 24 hours; cited from earlier work
[9] = test system: H22 patient-derived xenografts; conditions: Fi(BYL719) 25 mg/kg twice a week; free BYL719 7 mg/kg/day (50 mg/kg/week); cited from earlier work
[10] = 60 consecutive days; BYL719 50 mg/kg/day, Fi(BYL719) 50 mg/kg/week; cited from earlier work
[11] = Table 6, proline-modified inhibitors, read-out: PI3Kα (IC50)
[12] = IV 0.1 mg/kg, 1 mL/kg (10-in-One)
[13] = in vivo, IV 0.1 mg/kg, 1 mL/kg (10-in-One), read-out: AUCiv
[14] = in vivo, IV 0.1 mg/kg, 1 mL/kg (10-in-One)
[15] = in vivo, PO 1 mg/kg, 5 mL/kg (5-in-One)
[16] = in vivo, PO 1 mg/kg, 5 mL/kg (5-in-One), read-out: AUCpo
[17] = Table 5, pyrone inhibitors, read-out: PI3Kα (IC50)
[18] = Table 4, pyridine-modified inhibitors, read-out: PI3Kα (IC50)

PI3Kα, sequence (P42336 whole entry): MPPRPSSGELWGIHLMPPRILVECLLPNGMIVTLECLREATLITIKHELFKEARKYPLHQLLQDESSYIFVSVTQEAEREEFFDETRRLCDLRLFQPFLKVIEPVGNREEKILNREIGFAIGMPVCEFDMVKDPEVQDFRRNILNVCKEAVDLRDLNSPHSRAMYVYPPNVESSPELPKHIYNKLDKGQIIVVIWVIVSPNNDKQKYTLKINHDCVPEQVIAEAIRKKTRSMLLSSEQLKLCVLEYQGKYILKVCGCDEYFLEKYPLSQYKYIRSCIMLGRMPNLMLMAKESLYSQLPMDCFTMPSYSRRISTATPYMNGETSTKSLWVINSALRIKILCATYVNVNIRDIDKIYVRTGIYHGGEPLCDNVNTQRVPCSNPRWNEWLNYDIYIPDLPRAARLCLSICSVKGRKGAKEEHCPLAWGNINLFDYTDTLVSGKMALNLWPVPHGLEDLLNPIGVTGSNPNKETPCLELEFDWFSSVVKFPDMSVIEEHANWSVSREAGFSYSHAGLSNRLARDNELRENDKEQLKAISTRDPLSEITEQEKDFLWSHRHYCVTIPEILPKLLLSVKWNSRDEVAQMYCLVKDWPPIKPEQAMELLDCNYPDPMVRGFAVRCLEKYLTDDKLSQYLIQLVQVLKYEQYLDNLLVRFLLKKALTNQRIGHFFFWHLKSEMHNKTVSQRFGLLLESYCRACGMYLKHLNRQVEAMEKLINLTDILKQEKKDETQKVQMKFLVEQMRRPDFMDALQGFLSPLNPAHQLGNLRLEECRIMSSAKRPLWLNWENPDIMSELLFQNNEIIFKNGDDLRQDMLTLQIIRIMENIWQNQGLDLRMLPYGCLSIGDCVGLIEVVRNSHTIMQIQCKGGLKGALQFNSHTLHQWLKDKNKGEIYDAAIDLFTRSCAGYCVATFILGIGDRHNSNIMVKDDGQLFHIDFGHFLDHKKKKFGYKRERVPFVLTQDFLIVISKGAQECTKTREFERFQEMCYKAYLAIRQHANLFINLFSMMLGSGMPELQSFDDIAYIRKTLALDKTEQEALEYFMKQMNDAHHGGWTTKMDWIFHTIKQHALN
PI3Kα, sequence (P27986 whole entry partner): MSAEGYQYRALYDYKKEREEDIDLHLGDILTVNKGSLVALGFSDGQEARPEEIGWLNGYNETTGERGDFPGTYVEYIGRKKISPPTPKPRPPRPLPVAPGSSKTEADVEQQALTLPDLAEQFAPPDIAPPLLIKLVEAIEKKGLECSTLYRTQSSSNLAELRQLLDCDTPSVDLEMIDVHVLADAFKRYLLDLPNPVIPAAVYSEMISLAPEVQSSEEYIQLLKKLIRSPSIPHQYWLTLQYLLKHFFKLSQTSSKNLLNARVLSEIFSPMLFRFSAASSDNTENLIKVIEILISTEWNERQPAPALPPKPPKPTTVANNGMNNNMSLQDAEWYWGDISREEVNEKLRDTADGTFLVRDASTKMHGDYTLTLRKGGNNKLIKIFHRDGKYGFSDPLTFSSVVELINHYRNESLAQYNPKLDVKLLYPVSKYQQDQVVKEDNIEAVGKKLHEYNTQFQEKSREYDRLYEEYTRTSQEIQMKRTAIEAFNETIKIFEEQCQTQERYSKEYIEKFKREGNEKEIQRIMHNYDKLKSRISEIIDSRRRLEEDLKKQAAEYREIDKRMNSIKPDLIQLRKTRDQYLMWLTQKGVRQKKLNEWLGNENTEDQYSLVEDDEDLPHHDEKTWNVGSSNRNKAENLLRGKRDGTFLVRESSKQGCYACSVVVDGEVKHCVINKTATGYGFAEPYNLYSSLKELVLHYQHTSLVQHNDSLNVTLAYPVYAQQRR

CCOC(=O)[C@@H]1CCN(C(=O)Nc2nc(C)c(-c3ccnc(C(C)(C)C(F)(F)F)c3)s2)[C@@H]1C(N)=O [Compound (20)]
PI3Kα inhibition in biochemical assay (in words) (PI3Kα): good intrinsic PI3Kα potency
IC50 (PI3Kα; [11]): < 100 nM

Cc1nc(NC(=O)N2CCC[C@H]2C(N)=O)sc1-c1cc(C(C)(C)C(F)(F)F)oc(=O)c1 [Compound (14)]
mean residence time (in words) ([1]; cassette dosing, free drug): short mean residence time
oral bioavailability (in words) ([1]; cassette dosing, free drug): modest oral bioavailability
total clearance (in words) ([1]; cassette dosing, free drug): high total clearance
MRTiv [1, 12]: 0.31 h
BA ([1]; IV 0.1 mg/kg, PO 1 mg/kg): 13.5%
MRTpo ([1]; PO 1 mg/kg, 5 mL/kg (5-in-One)): 1.07 h
AUC [1, 13]: 17.8 ng·h/mL
concentration at 5 min [1, 14]: 66.4 ng/mL
clearance [1, 14]: 96.5 mL/min/kg
Vd [1, 14]: 1.78 L/kg
Cmax [1, 15]: 17.1 ng/mL
AUC [1, 16]: 24 ng·h/mL
Tmax ([1]; in vivo, PO 1 mg/kg, 5 mL/kg (5-in-One), read-out: Tmax): 0.42 h
PI3Kα inhibition in biochemical assay (in words) (PI3Kα): potent inhibitor
IC50 (PI3Kα; Table 1, read-out: PI3Kα (IC50)): < 100 nM
IC50 (PI3Kα; [17]): < 100 nM
IC50 (PI3Kα; refers to Table 5, read-out: PI3Kα inhibitor in biochemical assays): < 100 nM
Nanoparticle drug load, % [2]: 22%
MRTiv [3, 12]: 0.42 h
BA ([3]; IV 0.1 mg/kg, PO 1 mg/kg): 5.9%
MRTpo ([3]; PO 1 mg/kg, 5 mL/kg (5-in-One)): 2.1 h
AUC [3, 13]: 45.1 ng·h/mL
concentration at 5 min ([3]; in vivo, IV 0.1 mg/kg, 1 mL/kg (10-in-One), read-out: C5min): 114 ng/mL
clearance ([3]; in vivo, IV 0.1 mg/kg, 1 mL/kg (10-in-One), read-out: Cltotal (converted)): 37 mL/min/kg
Vd ([3]; in vivo, IV 0.1 mg/kg, 1 mL/kg (10-in-One), read-out: VDss): 0.932 L/kg
Cmax [3, 15]: 11.8 ng/mL
Tmax [3, 15]: 0.5 h
AUC [3, 16]: 26.9 ng·h/mL
efficacy in PI3K cellular assays (PI3K): (+++)
PI3K cellular activity (PI3K): (+++)***

Cc1nc(NC(=O)N2CCC[C@H]2C(N)=O)sc1-c1ccnc(C(C)(C)C(=O)O)c1 [Compound (7)]
IC50 (PI3Kα; [18]): < 100 nM

Cc1nc(NC(=O)N2CCC[C@H]2C(N)=O)sc1-c1ccnc(C(C)(C)C(=O)OC(C)OC(=O)OC2CCCCC2)c1 (some centres unmarked) [Compound (3)]
IC50 (PI3Kα; [18]): < 100 nM

CCOC(=O)[C@H]1C[C@@H](C(N)=O)N(C(=O)Nc2nc(C)c(-c3cc(C(C)(C)C(F)(F)F)oc(=O)c3)s2)C1 [Compound (12)]
PI3Kα inhibition in biochemical assay (in words) (PI3Kα): active
IC50 (PI3Kα; [17]): < 100 nM

CCOC(=O)C(C)c1cc(-c2sc(NC(=O)N3CCC[C@H]3C(N)=O)nc2C)ccn1 (mixture of isomers) [Compound (6)]
IC50 (PI3Kα; [18]): < 100 nM

Cc1nc(NC(=O)N2CCC[C@H]2C(N)=O)sc1-c1ccnc(C(C)(C)C(=O)OC2CCOC2=O)c1 (some centres unmarked) [Compound (1)]
IC50 (PI3Kα; [18]): < 100 nM

Cc1nc(NC(=O)N2CCC[C@H]2C(N)=O)sc1-c1cc(C(C)C)oc(=O)c1 [Compound (13)]
IC50 (PI3Kα; [17]): < 100 nM

Cc1cc(-c2sc(NC(=O)N3CCC[C@H]3C(N)=O)nc2C)cc(=O)o1 [Compound (15)]
IC50 (PI3Kα; [17]): < 500 nM

Cn1cnc2c(F)c(Nc3ccc(Br)cc3F)c(C(=O)NOCCO)cc21 [MEK162]
pERK inhibition in the skin (ERK phosphorylation; 4 and 24 hours): phosphorylation returned in both tissues after 24 hours
pERK inhibition in the tumor (ERK phosphorylation; after 24 hours): phosphorylation returned in both tissues after 24 hours

COC(=O)c1cc(-c2sc(NC(=O)N3CCC[C@H]3C(N)=O)nc2C)ccn1 [Compound (9)]
IC50 (PI3Kα; [18]): < 100 nM

CCOC(=O)[C@@H]1C[C@@H](C(N)=O)N(C(=O)Nc2nc(C)c(-c3cc(C(C)(C)C(F)(F)F)oc(=O)c3)s2)C1 [Compound (11)]
PI3Kα inhibition in biochemical assay (in words) (PI3Kα): active
IC50 (PI3Kα; [17]): < 100 nM

COc1cccc2c1C(=O)c1c(O)c3c(c(O)c1C2=O)C[C@@](O)(C(=O)CO)C[C@@H]3O[C@H]1C[C@H](N)[C@H](O)[C@H](C)O1 [doxorubicin]
tumor burden and survival after a single injection [4]: did not have a significant effect

Cc1nc(NC(=O)N2CCC[C@H]2C(N)=O)sc1-c1ccnc(C(C)(C)C(=O)OCc2oc(=O)oc2C)c1 [Compound (4)]
IC50 (PI3Kα; [18]): < 100 nM

CCOC(=O)C1CC(C(N)=O)N(C(=O)Nc2nc(C)c(-c3ccnc(C(C)(C)C(F)(F)F)c3)s2)C1 (centres unmarked) [Compound (21)]
PI3Kα inhibition in biochemical assay (in words) (PI3Kα): good intrinsic PI3Kα potency
IC50 (PI3Kα; [11]): < 100 nM

CCOC(=O)C1(c2cc(-c3sc(NC(=O)N4CCC[C@H]4C(N)=O)nc3C)ccn2)CC1 [Compound (5)]
IC50 (PI3Kα; [18]): < 100 nM

CCOC(=O)[C@@H]1CCN(C(=O)Nc2nc(C)c(-c3cc(C(C)(C)C(F)(F)F)oc(=O)c3)s2)[C@@H]1C(N)=O [Compound (10)]
PI3Kα inhibition in biochemical assay (in words) (PI3Kα): active
IC50 (PI3Kα; [17]): < 100 nM

Cc1nc(NC(=O)N2CCC[C@H]2C(N)=O)sc1-c1ccnc(C(C)(C)C(F)(F)F)c1 [BYL719, alpelisib, reference compound]
observed half-life in humans [5]: 11.5 h
MRTiv [1, 12]: 1.12 h
BA ([1]; IV 0.1 mg/kg, PO 1 mg/kg): 71.2%
MRTpo ([1]; PO 1 mg/kg, 5 mL/kg (5-in-One)): 2.12 h
Tmax ([1]; PO 1 mg/kg, 5 mL/kg (5-in-One)): 1 h
AUC [1, 13]: 73.9 ng·h/mL
concentration at 5 min [1, 14]: 56.4 ng/mL
clearance [1, 14]: 22.9 mL/min/kg
Vd [1, 14]: 1.54 L/kg
Cmax [1, 15]: 184 ng/mL
AUC [1, 16]: 526 ng·h/mL
serum glucose levels [6]: spike
serum insulin levels ([6]; within 24 hours): spike
Nanoparticle drug load, % [2]: 22%
antitumor activity in Cal-33 (Cal-33 xenografts): no appreciable antitumor activity
BA ([7]; 15 mg/kg PO): 58%
Cltotal [7]: 10 mL/min/kg
MRTiv [7]: 2.9 h
VDss [7]: 1.9 L/kg
inhibition of S6 phosphorylation in tumor [8]: strong albeit transient inhibition
antitumor activity in H22 [9]: transient delay of tumor growth followed by acquired insensitivity to the treatment
serum glucose and insulin levels after chronic treatment [10]: Significantly elevated
PI3K cellular activity (PI3K): (+++)***

CCOC(=O)CC(C)(C)c1cc(-c2sc(NC(=O)N3CCC[C@H]3C(N)=O)nc2C)ccn1 [Compound (2)]
IC50 (PI3Kα; [18]): < 100 nM

COC(=O)C(C)(C)c1cc(-c2sc(NC(=O)N3CCC[C@H]3C(N)=O)nc2C)ccn1 [Compound (8)]
IC50 (PI3Kα; [18]): < 100 nM
